In PMC8654833 (Scientific Reports, 2021):

Columns and labels:
[1] = molecular target: T1, 5-HT1B (Rattus norvegicus, UniProt P28564); experiment: Single-concentration radioligand binding screen (Eurofins Cerep), 5-HT1B; conditions: read-out: %Binding inhibition at 10 µM
T1 construct: Eurofins Cerep (contract assay)
Protocol: (§1) This study included binding assays (87 GPCR targets), measured as % of binding inhibition of a reference radioligand, as well as uptake and enzyme assays (19 targets), the latter measured as % inhibition of control enzyme activity. […] It was performed by radioligand binding competition by Euroscreen (Euroscreen FAST, Belgium). The following nanomolar concentrations were tested in duplicate: 0.001, 0.01, 0.1, 1, 10, 100, 1000, 10,000. Dose–response curves were fitted with the least squares method. IC50 results are shown as pIC50, corresponding to the negative log10 of IC50 in molar.

[2] = molecular target: T2, 5-HT2B (Homo sapiens, UniProt P41595); experiment: biochemical; conditions: read-out: %Binding inhibition at 10 µM, dose-response study, maximal concentration 10 µM, [3H]mesulergine
T2 sequence (P41595 whole entry, species assumed): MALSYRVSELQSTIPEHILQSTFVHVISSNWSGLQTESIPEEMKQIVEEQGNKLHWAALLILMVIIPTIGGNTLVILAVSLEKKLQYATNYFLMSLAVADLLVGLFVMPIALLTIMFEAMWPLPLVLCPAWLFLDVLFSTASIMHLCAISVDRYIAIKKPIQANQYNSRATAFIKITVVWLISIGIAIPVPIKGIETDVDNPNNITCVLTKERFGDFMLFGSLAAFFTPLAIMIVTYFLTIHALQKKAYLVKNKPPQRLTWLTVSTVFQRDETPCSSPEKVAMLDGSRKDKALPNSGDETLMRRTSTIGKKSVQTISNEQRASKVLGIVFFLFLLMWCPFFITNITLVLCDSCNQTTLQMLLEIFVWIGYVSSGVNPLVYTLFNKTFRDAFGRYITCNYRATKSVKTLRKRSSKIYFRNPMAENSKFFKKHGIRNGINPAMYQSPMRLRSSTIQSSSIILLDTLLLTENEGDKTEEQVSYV

[3] = molecular target: T3, NET (Homo sapiens, UniProt P23975); experiment: Radioligand binding competition dose-response (Euroscreen), norepinephrine transporter; conditions: dose-response study, maximal concentration 10 µM, 3H]nisoxetine
T3 construct: Euroscreen FAST (contract assay)
T3 sequence (P23975 whole entry): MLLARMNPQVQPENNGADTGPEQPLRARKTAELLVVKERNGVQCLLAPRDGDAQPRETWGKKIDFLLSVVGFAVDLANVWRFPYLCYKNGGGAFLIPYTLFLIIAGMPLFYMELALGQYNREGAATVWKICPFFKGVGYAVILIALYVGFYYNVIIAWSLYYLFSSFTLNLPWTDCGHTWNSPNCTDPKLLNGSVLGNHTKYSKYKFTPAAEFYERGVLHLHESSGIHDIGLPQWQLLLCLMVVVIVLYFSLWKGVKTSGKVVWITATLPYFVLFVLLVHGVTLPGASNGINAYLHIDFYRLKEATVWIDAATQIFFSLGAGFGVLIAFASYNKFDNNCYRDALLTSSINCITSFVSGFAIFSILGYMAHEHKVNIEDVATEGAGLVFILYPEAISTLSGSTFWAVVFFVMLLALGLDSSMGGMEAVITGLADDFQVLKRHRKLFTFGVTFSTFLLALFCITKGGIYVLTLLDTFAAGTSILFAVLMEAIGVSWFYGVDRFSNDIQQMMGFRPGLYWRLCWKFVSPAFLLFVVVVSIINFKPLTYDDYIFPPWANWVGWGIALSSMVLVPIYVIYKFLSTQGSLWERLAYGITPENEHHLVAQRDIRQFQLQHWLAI
Protocol: as §1

[4] = molecular target: Ca^2+ channel, vs; experiment: Radioligand binding competition dose-response (Euroscreen), Ca2+ channel verapamil site
Protocol: as §1

[5] = molecular target: T4, DAT (Homo sapiens, UniProt Q01959); experiment: Radioligand binding competition dose-response (Euroscreen), dopamine transporter
T4 construct: Euroscreen FAST (contract assay)
T4 sequence (Q01959 whole entry, species assumed): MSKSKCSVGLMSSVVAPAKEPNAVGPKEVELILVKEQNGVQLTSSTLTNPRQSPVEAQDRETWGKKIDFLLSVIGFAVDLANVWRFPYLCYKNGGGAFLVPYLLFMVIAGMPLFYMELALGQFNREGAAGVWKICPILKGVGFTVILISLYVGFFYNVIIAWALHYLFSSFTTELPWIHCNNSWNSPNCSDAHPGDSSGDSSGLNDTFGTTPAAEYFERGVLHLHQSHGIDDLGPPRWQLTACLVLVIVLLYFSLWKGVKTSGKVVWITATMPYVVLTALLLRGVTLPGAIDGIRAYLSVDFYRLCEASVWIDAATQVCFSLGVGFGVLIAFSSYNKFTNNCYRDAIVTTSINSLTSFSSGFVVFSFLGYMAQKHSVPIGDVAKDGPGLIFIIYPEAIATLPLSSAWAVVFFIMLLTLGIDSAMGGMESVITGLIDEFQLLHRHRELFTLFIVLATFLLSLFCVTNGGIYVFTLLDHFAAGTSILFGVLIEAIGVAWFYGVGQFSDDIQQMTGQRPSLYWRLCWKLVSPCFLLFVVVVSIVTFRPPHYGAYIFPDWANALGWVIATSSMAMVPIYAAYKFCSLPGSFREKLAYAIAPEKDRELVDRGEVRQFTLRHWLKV
Protocol: as §1

[6] = molecular target: T5, 5-HT5A (Homo sapiens, UniProt P47898); experiment: Single-concentration radioligand binding screen (Eurofins Cerep), 5-HT5A; conditions: single concentration 10 µM screen, [3H]LSD
T5 construct: Euroscreen FAST (contract assay)
T5 sequence (P47898 whole entry, species assumed): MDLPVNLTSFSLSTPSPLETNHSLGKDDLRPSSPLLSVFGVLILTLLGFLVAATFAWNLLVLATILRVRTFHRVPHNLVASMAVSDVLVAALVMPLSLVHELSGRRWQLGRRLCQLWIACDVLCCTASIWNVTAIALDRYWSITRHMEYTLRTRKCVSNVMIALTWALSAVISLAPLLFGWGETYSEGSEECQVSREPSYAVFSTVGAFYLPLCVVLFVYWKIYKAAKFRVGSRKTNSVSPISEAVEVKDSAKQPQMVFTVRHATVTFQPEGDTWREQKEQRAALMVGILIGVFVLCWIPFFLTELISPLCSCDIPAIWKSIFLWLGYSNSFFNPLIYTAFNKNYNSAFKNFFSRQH
Protocol: as §1

[7] = test system: Ca^2+ channel, ds; experiment: Single-concentration radioligand binding screen (Eurofins Cerep), Ca2+ channel diltiazem site; conditions: single concentration 10 µM screen, [3H]diltiazem
Protocol: as §1

[8] = in vivo; conditions: CD-1, mouse, po, 10 mg/kg
[9] = Stability in vehicle at 37 °C by LC-MS; format: physicochemical; conditions: vehicle (20% DMSO in distilled water), data not shown
[10] = test system: microglia related genes in the cervical and thoracic spinal cord; experiment: RT-qPCR of microglia related genes in spinal cord; format: in vivo, Sod1^G86R mice
Protocol: We then sought to characterize whether BW modulated microglial physiology and used RT-qPCR to measure microglia related genes in the cervical and thoracic spinal cord of animals treated with either vehicle or 3 mg/kg/d of BW. […] We next wanted to see if these changes in gene expression were accompanied by modification of microglial activation in spinal cord of treated mice. Iba1 + cells were classified in 4 different activation states (resting, activated, phagocytic or dystrophic).
Total RNA was extracted from the cervical and thoracic spinal cord of end stage mice using TRIzol (Invitrogen). Reverse transcription was performed using 1 μg of RNA and the iScript cDNA synthesis kit (BioRad). IQ SYBR green Supermix (BioRad) was used to perform RT-PCR. Data were normalized with GeNorm software (RRID: SCR_006763)[25]. Three reporter genes were used for normalization: POL2, TBP and Actin. Oligonucleotide primers are provided in Supplementary Table S1.

[11] = molecular target: T6, 5-HT1A (Homo sapiens, UniProt P08908); experiment: Single-concentration radioligand binding screen (Eurofins Cerep), 5-HT1A; conditions: single concentration 10 µM screen, [3H]8-OH-DPAT
T6 construct: Euroscreen FAST (contract assay)
T6 sequence (P08908 1-422): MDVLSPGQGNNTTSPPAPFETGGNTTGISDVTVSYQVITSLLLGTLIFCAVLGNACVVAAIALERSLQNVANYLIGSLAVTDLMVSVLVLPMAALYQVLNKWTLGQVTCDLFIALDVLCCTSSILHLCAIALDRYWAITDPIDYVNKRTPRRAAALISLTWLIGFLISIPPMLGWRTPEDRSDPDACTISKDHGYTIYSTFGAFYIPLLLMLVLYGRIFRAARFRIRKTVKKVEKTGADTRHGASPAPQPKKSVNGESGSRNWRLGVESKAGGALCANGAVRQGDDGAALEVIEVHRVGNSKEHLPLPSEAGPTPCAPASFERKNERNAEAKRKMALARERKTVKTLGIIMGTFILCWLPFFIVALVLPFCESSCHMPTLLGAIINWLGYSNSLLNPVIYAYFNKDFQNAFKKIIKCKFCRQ
Protocol: as §1

[12] = molecular target: T7, 5-HT2C (Homo sapiens, UniProt P28335); experiment: Single-concentration radioligand binding screen (Eurofins Cerep), 5-HT2C; conditions: single concentration 10 µM screen, [3H]mesulergine
T7 construct: Euroscreen FAST (contract assay)
T7 sequence (P28335 33-458): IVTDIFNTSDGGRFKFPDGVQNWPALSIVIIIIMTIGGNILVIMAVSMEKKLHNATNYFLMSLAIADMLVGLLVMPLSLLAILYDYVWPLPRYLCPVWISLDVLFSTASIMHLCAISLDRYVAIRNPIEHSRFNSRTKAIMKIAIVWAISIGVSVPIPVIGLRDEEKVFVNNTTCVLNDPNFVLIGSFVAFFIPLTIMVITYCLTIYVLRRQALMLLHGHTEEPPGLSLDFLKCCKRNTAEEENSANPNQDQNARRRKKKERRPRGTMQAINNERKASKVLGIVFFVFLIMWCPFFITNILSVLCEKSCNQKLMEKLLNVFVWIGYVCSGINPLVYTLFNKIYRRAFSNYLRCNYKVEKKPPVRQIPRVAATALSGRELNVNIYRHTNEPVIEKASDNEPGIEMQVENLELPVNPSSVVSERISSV
Protocol: as §1

[13] = test system: Ca^2+ channel, vs; experiment: Single-concentration radioligand binding screen (Eurofins Cerep), Ca2+ channel verapamil site; conditions: single concentration 10 µM screen, [3H]D888
Protocol: as §1

[14] = molecular target: T7, 5-HT2C; experiment: Radioligand binding competition dose-response (Euroscreen), 5-HT2C
Protocol: as §1

[15] = molecular target: T2, 5-HT2B; experiment: Single-concentration radioligand binding screen (Eurofins Cerep), 5-HT2B; parameters: Euroscreen FAST (contract assay); conditions: single concentration 10 µM screen, [3H]mesulergine
[16] = molecular target: T5, 5-HT5A; experiment: Radioligand binding competition dose-response (Euroscreen), 5-HT5A
Protocol: as §1

[17] = molecular target: T8, 5-HT7 (Homo sapiens, UniProt P34969); experiment: Single-concentration radioligand binding screen (Eurofins Cerep), 5-HT7; conditions: single concentration 10 µM screen, [3H]LSD
T8 construct: Euroscreen FAST (contract assay)
T8 sequence (P34969 whole entry, species assumed): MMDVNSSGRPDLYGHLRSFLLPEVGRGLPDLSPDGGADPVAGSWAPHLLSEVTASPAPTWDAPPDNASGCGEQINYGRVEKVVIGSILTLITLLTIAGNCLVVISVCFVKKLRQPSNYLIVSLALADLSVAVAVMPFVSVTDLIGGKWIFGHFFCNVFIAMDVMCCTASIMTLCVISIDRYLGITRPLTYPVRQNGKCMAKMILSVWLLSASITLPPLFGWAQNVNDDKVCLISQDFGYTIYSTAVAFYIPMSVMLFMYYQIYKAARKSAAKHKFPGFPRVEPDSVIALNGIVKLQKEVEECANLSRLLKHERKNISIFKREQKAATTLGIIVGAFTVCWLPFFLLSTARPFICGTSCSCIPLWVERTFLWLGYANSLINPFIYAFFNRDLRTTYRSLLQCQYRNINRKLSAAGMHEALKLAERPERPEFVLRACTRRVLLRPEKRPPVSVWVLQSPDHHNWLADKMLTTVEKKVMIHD
Protocol: as §1

T1 sequence (P28564 whole entry): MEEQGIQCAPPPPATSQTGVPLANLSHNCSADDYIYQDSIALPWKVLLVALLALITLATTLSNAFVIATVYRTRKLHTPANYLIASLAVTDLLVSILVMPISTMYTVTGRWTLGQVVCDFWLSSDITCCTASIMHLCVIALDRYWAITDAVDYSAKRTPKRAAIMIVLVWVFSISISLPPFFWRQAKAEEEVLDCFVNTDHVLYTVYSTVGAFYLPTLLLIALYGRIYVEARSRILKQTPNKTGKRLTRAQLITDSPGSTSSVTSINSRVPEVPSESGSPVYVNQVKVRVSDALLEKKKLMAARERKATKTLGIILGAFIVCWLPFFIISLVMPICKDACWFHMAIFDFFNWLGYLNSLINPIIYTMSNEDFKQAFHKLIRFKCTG

CC(N)Cc1c[nH]c2ccc(OCc3cccs3)cc12 (centres unmarked) [BW, 1-[5-(thiophen-2-ylmethoxy)-1H-indol-3-yl]propan-2-amine]
inhibition at 10 µM [1]: 92%
inhibition at 10 µM [2]: 100%
inhibition at 10 µM [3]: 74.4%
pIC50 ([4]; [3H]D888 competition): 5.21
%Binding inhibition at 10 µM ([4]; dose-response study, maximal concentration 10 µM, [3H]D888): 51.29%
pIC50 difference as compared to 5-HT2BR ([4]; verapamil site of calcium channel vs 5-HT2BR): 2.3 log10
IC50 [5]: 0.741 µM
inhibition at 10 µM ([5]; read-out: %Binding inhibition at 10 µM): 73.2%
inhibition at 10 µM [6]: 54.6%
%Binding inhibition at 10 µM [7]: 66.3%
Tmax [8]: 30 min
stable at 37 °C in vehicle [9]: at least 2 months
Hexb upregulation in Sod1^G86R mice ([10]; 3 mg/kg/d, spinal cord RT-qPCR): partially prevented
disease-associated upregulation of Nox2 ([10]; 3 mg/kg/d, spinal cord RT-qPCR): partially prevented
disease-associated upregulation of Tyrobp (DAP12) ([10]; 3 mg/kg/d, spinal cord RT-qPCR): partially prevented
upregulation of disease-associated microglia marker Apoe ([10]; 3 mg/kg/d, spinal cord RT-qPCR): blunted the upregulation
upregulation of disease-associated microglia marker Cd9 ([10]; 3 mg/kg/d, spinal cord RT-qPCR): blunted the upregulation
upregulation of disease-associated microglia marker Cst7 ([10]; 3 mg/kg/d, spinal cord RT-qPCR): blunted the upregulation
upregulation of disease-associated microglia marker Lpl ([10]; 3 mg/kg/d, spinal cord RT-qPCR): blunted the upregulation
Tmem119 expression ([10]; Sod1^G86R mice with BW treatment): downregulated
inhibition at 10 µM [11]: 91.8%
inhibition at 10 µM [12]: 97.8%
%Binding inhibition at 10 µM [13]: 75.5%
IC50 [14]: 1.32 µM
inhibition at 10 µM ([14]; dose-response study, maximal concentration 10 µM, [3H]mesulergine): 91.1%
inhibition at 10 µM [15]: 99%
IC50 [16]: 1.38 µM
inhibition at 10 µM ([16]; dose-response study, maximal concentration 10 µM, [3H]LSD): 84.3%
inhibition at 10 µM [17]: 89.5%
